Reference: US20230240988A1, “FLUID GEL COMPOSITIONS” (The University of Birmingham, priority 2020, published 2023)
Read-outs that look alike come from different tables or passages of the source.

Experiments:
[1] = system: primary ovine chondrocytes; assay: PrestoBlue metabolic activity assay; format: cell-based
Description: All cell work was undertaken on primary ovine chondrocytes. Cells were first expanded, then seeded into wells 24 hrs prior to the application of the fluid gels. Once treatments were added, the cells were cultured for a further 3 days before testing for both metabolic activity and cell viability. In the presence of functionalised particles, suspension wells were used to promote adhesion to the gelled particles, away from the plastic. Metabolic activity assay was undertaken using a PrestoBlue™ assay kit (Invitrogen). In brief, cells were washed with Dulbecco's PBS, and 1 mL of PrestoBlue™ supplemented medium (10%) was added to each well and incubated for 4 hrs. 50 μL of supernatant from each well was transferred to one well of a 96 well plate and fluorescence was measured using a Tecan Spark (Tecan Group Ltd, UK) plate reader with excitation/emission wavelengths set at 550/620 nm.

[2] = Release assay of active agents from PEG-DA fluid gel (trans-well, UV/Vis); format: physicochemical; conditions: 3% v/v PEG-DA fluid gel (500 rpm), PBS 37° C., 5 hrs
Description: • Active amounts: […] • Standard concentrations of active in PBS were prepared. • Standards were pipetted into a quartz cuvette (1 mm pathlength). • […] spectroscopy was used to measure absorbance between 200 and 700 nm wavelength. • Curves were plotted and used to determine standard curves which were used to determine concentrations. • 0.5 ml PBS was added to the well of a 24 well plate. • The PBS was incubated at 37° C. to equilibrate. 0.1 ml of the fluid gel containing active was placed in a trans-well insert. • The trans-well insert was placed into a well containing PBS. • After a given time period the trans-well insert was removed and placed in a fresh well of PBS. • The release media was then removed and analysed using […] spectroscopy. Concentrations were derived from the standard curves and cumulative release plotted as a function of time.

Row | Compound | release of active agent from fluid gel [2] | also measured
1 | CC(C)(O)C(=O)c1ccc(OCCO)cc1 [Irgacure-2959, 1-[4-(2-Hydroxyethoxy)-phenyl]-2-hydroxy-2-methyl-1-propane-1-one] |  | cell metabolic activity, individual formulation components [1]: slight reduction in cell metabolism
2 | Dextran | able to release | 
3 | CC(C)(O)C(=O)c1ccccc1 [Omnirad-1173, 2-hydroxy-2-methyl-1-phenylpropanone] |  | cell metabolic activity, individual formulation components ([1]; 3 days culture, PEG-DA not cured, 3.5% & 5%): slight reduction in cell metabolism, although not statistical
4 | CC(C)Cc1ccc(C(C)C(=O)O)cc1 (stereo not shown) [Ibuprofen, ibuprofen] | able to release | 
